Series [1] concerns the target T1, ACC1 (Homo sapiens, UniProt Q13085).
T1 construct: purchased BPS bioscience
Kind of series: In vitro inhibition of ACC1 activity, ADP-Glo Kinase Analysis. Particulars: 1 nM ACC1, 10 μM acetyl-CoA, 20 μM ATP. Format: biochemical. The text has this: ADP-Glo™ Kinase Analysis Kit (Promega) is used for the in vitro analysis of the inhibitory effect of the present compound on ACC1 or ACC2. ADP-Glo™ Kinase Analysis is a kinase detection analysis of luminescence method. ADP is produced in the process of catalyzing the substrate by ACC. ADP is converted into ATP which is then converted into light by Ultra-Glo™ luciferase. ADP is quantified by detecting the light signal, thus the enzyme activity can be measured by quantification of the ADP amount produced during the enzyme reaction. The analysis is carried out in two steps: in the first step, after the kinase reaction, a portion of ADP-Glo™ reagent equal in volume to the kinase reaction system is added to terminate the reaction and consume the remaining ATP; in the second step, a kinase detection reagent is added, which not only converts ADP into ATP, but also uses a coupled luciferase/luciferin reaction to detect newly synthesized ATP.
a. 10 mM compound stock solution (the present compound was dissolved in 100% DMSO to prepare the 10 mM stock solution) was diluted 50-fold to 200 μM with 100% DMSO, and then diluted in equal proportions (1:3) in a 96-well dilution plate (249944, Nunc). The gradient concentrations of the compound were 200 μM, 66.67 μM, 22.22 μM, 7.41 μM, 2.47 μM, 0.823 μM, 0.274 μM, 0.0914 μM, 0.0305 μM, 0.0102 μM, 0.00339 μM and 0.00113 μM.
b. 4.5 μL ACC1 working solution (BPS bioscience) (2.22 nM) was added to each well of a 384-well test plate (6007290, Perkin Elmer).
c. 0.5 μL of the serially diluted compound (prepared in step a) was added to each well of the 384-well test plate, which was centrifuged at 1000 rpm for 1 min and then incubated at room temperature for 15 min. The reaction system with compound GS-0976 at a final concentration of 0.1 μM was used as positive control; the reaction system with no compound but DMSO at a final concentration of 5% was used as negative control.
d. In the 384-well test plate (prepared in step c), 5 μL of the substrate working solution was added to each well to start the enzymatic reaction. The plate was centrifuged at 1000 rpm for 1 min and then incubated at room temperature for 30 min. The final concentration of each component in the ACC1 reaction system: 1 nM ACC1, 10 μM acetyl-CoA, 30 mM NaHCO3, and 20 μM ATP. The final concentration of each component in the ACC2 reaction system: 1.1 nM ACC2, 20 μM acetyl-CoA, 20 mM NaHCO3, and 15 μM ATP. Final concentrations of test compounds: 10 μM, 3.33 μM, 1.11 μM, 0.37 μM, 0.123 μM, 0.0411 μM, 0.0137 μM, 0.00457 μM, 0.00152 μM, 0.00051 μM, 0.00017 μM and 0.000056 μM. The final concentration of DMSO was 5% (v/v).
e. 10 μL of ADP-Glo reagent was added to each well of the 384-well test plate (prepared in step d), which was centrifuged at 1000 rpm for 1 min and then incubated at room temperature for 40 min.
f. 20 μL of kinase detection reagent was added to each well of the 384-well test plate (prepared in step e), which was centrifuged at 1000 rpm for 1 min and then incubated at room temperature for 40 min.
g. The chemiluminescence signal was detected with Perkin Elmer EnVision 2104.
ACC1 working solution and substrate working solution were both prepared with 1× kinase reaction buffer. The buffer was consisting of 50 mM HEPES buffer, 2 mM magnesium chloride, 0.01% BRIJ-35, 2 mM potassium citrate, 50 μg/mL BSA and 2 mM DTT.
The average value of the positive and negative control well and the standard deviation were calculated. The inhibition percentage was calculated according to the following formula: 100×[1−(compound−average value of positive control)/(average value of negative control-average value of positive control)].
IC50 of the compound was obtained using GraphPad Prism 6 software according to the following nonlinear fitting formula:
Y=Bottom+(Top−Bottom)/(1+10^((Log IC50−X)×Hillslope)), […]

The test system of series [2] is patients with non-alcoholic steatohepatitis (NASH). The conditions noted are these: cited from earlier work.
Series [3] concerns patients. Particulars: 10 patients, 20 mg orally once a day for 12 weeks; cited from earlier work.

This is an account of results in US20220041616A1, “SPIRO COMPOUND AND MEDICAL USES THEREOF” (The National Institutes of Pharmaceutical R&D Co., Ltd., priority 2018, published 2022).

SMILES strings stand for the structures.

As for `COC(=O)C(=O)N1CCC2(CC1)C(=O)c1c(sc(-c3ncco3)c1C)N(C[C@H](OC1CCOCC1)c1ccccc1OC)C2=O` [Compound 26, methyl (R)-2-(7′-(2-(2-methoxyphenyl)-2-((tetrahydro-2H-pyran-4-yl)oxy)ethyl)-3′-methyl-2′-(oxazol-2-yl)-4′,6′-dioxo-6′,7′-dihydro-4′H-spiro[piperidine-4,5′-thieno[2,3-d]pyridin]-1-yl)-2-oxoacetate], the concentration for half-maximal inhibition (IC50) in series [1] was under 10 nM.

On to `COc1ccccc1[C@H](CN1C(=O)C2(CCN(C(=O)C(=O)O)CC2)C(=O)c2c1sc(-c1ncco1)c2C)OC1CCOCC1` [Compound 27, (R)-2-(7′-(2-(2-methoxyphenyl)-2-((tetrahydro-2H-pyran-4-yl)oxy)ethyl)-3′-methyl-2′-(oxazol-2-yl)-4′,6′-dioxo-6′,7′-dihydro-4′H-spiro[piperidine-4,5′-thieno[2,3-d]pyridin]-1-yl)-2-oxoacetic Acid], for which the 50% inhibitory concentration (IC50) in series [1] was under 10 nM.

In the case of `COC(=O)N1CCC2(CC1)C(=O)c1c(sc(-c3ncco3)c1C)N(C[C@H](OC1CCOCC1)c1ccccc1OC)C2=O` [Compound 28, methyl (R)-7′-(2-(2-methoxyphenyl)-2-((tetrahydro-2H-pyran-4-yl)oxy)ethyl)-3′-methyl-2′-(oxazol-2-yl)-4′,6′-dioxo-6′,7′-dihydro-4′H-spiro[piperidine-4,5′-thieno[2,3-d]pyridine]-1-carboxylate], the IC50 in series [1] was under 10 nM.

`COc1ccccc1[C@H](CN1C(=O)C2(CCN(C(=O)NCC(=O)O)CC2)C(=O)c2c1sc(-c1ncco1)c2C)OC1CCOCC1` [Compound 29, (R)-(7′-(2-(2-methoxyphenyl)-2-((tetrahydro-2H-pyran-4-yl)oxy)ethyl)-3′-methyl-2′-(oxazol-2-yl)-4′,6′-dioxo-6′,7′-dihydro-4′H-spiro[piperidine-4,5′-thieno[2,3-d]pyridine]-1-carbonyl)glycine] gave an IC50 in series [1] of under 10 nM.

With `COc1ccccc1[C@H](CN1C(=O)C2(CCN(S(=O)(=O)O)CC2)C(=O)c2c1sc(-c1ncco1)c2C)OC1CCOCC1` [Compound 30], in series [1], the half-inhibitory concentration (IC50) was under 10 nM.

`COc1ccccc1[C@H](CN1C(=O)C2(CCN(C(N)=O)CC2)C(=O)c2c1sc(-c1ncco1)c2C)OC1CCOCC1` [Compound 31]: the half-inhibitory concentration (IC50) in series [1] is under 10 nM.

Regarding `CNC(=O)N1CCC2(CC1)C(=O)c1c(sc(-c3ncco3)c1C)N(C[C@H](OC1CCOCC1)c1ccccc1OC)C2=O` [Compound 32], the 50% inhibitory concentration (IC50) in series [1] was under 10 nM.

In the case of `COc1ccccc1[C@H](CN1C(=O)C2(CCN(C(=O)NCCO)CC2)C(=O)c2c1sc(-c1ncco1)c2C)OC1CCOCC1` [Compound 33], the 50% inhibitory concentration (IC50) in series [1] is under 10 nM.

Take `COc1ccccc1[C@H](Cn1c(=O)n(C(C)(C)C(=O)O)c(=O)c2c(C)c(-c3ncco3)sc21)OC1CCOCC1` [GS-0976]: the “relative decrease of liver fat content” value in series [2] (12th week, MRI-PDFF) is given as 43%. For the same compound, the “median cirrhosis, non-invasive marker of fibrosis, by magnetic resonance elastography (MRE)” value in series [2] (12th week, baseline 3.4 kPa, p=0.049) is 3.1 kPa. Besides, in series [2] (12th week, baseline 15.7%, p=0.006), the “liver fat content measured by MRI-PDFF” value is reported as 9.0%. Besides, the “decrease of the amount of denovo fat synthesis from the baseline level, median” value in series [2] (after 12 weeks) is on record as 29%. Besides, the tolerability result in series [2] (most common adverse events nausea, abdominal pain and diarrhea) was “well tolerated”. Moreover, the “liver fat content and non-invasive fibrosis markers” value in series [3] was “statistically significant improvements”.
